Reference: ChEMBL document CHEMBL5223104, “Discovery of triazenyl triazoles as Nav1.1 channel blockers for treatment of epilepsy” (Bioorg Med Chem Lett, 2022)
Calls of active or inactive are those of the source. No cut-off for these calls is given here.

Assays:
[1] = molecular target: Sodium channel protein type 1 subunit alpha (Homo sapiens) (UniProt P35498); assay: Modulator activity at human Nav1.1 expressed in human Flp-In-T-REx-293 cells assessed as half inactivation potential at 100 uM by whole cell patch clamp electrophysiology assay; assay type: cell-based
[2] = molecular target: Sodium channel protein type 1 subunit alpha (Homo sapiens) (UniProt P35498); assay: Modulator activity at human Nav1.1 expressed in human Flp-In-T-REx-293 cells assessed as change in half activation potential at 100 uM measured at holding potential of -120 mV by whole cell patch clamp electrophysiology assay; assay type: cell-based
[3] = molecular target: Sodium channel protein type 1 subunit alpha (Homo sapiens) (UniProt P35498); assay: Modulator activity at human Nav1.1 expressed in human Flp-In-T-REx-293 cells assessed as change in half inactivation potential at 100 uM by whole cell patch clamp electrophysiology assay; assay type: cell-based
[4] = molecular target: Sodium channel protein type 1 subunit alpha (Homo sapiens) (UniProt P35498); assay: Modulator activity at human Nav1.1 expressed in human Flp-In-T-REx-293 cells assessed as half activation potential at 100 uM measured at holding potential of -120 mV by whole cell patch clamp electrophysiology assay; assay type: cell-based
[5] = Apparent volume of distribution during terminal phase in Sprague-Dawley rat at 10 mg/kg, iv; assay type: ADME, organism-based; details: in vivo
[6] = Cmax in Sprague-Dawley rat at 50 mg/kg, po; assay type: ADME, organism-based; parameters: dose 50 mg/kg, route po; details: in vivo
[7] = Half life in Sprague-Dawley rat at 10 mg/kg, iv; assay type: ADME, organism-based; details: in vivo
[8] = Cmax in Sprague-Dawley rat at 10 mg/kg, iv; assay type: ADME, organism-based; parameters: dose 10 mg/kg, route iv; details: in vivo
[9] = AUClast in Sprague-Dawley rat plasma at 50 mg/kg, po; assay type: ADME, organism-based; parameters: dose 50 mg/kg, route po; details: in vivo
[10] = Apparent clearance during terminal phase in Sprague-Dawley rat at 10 mg/kg, iv; assay type: ADME, organism-based; details: in vivo
[11] = Apparent volume of distribution during terminal phase in Sprague-Dawley rat at 50 mg/kg, po; assay type: ADME, organism-based; details: in vivo, read-out: Vz/F
[12] = test system: Mus musculus; assay: Anti-seizure activity against PTZ-induced ICR mouse seizure model assessed as decrease in seizure severity stage at 50 mg/kg, IG incubated for 1 hrs followed by PTZ stimulation and measured <30 mins; assay type: functional, organism-based; details: time < 1.5 hrs
[13] = test system: Mus musculus; assay: Anti-seizure activity against ICR mouse […] assessed as increase in latency duration in stage 3 at 50 mg/kg, IG incubated for 1 hrs followed by PTZ stimulation; assay type: functional, organism-based
[14] = Apparent clearance during terminal phase in Sprague-Dawley rat at 50 mg/kg, po; assay type: ADME, organism-based; details: in vivo
[15] = AUClast in Sprague-Dawley rat plasma at 10 mg/kg, iv; assay type: ADME, organism-based; parameters: dose 10 mg/kg, route iv; details: in vivo
[16] = Oral bioavailability in Sprague-Dawley rat at 50 mg/kg; assay type: ADME, organism-based; details: in vivo
[17] = test system: Mus musculus; assay: Anti-seizure activity against PTZ-induced ICR mouse seizure model assessed as increase in survival rate at 50 mg/kg, IG incubated for 1 hrs followed by PTZ stimulation and measured <30 mins; assay type: functional, organism-based; details: time < 1.5 hrs
[18] = test system: Mus musculus; assay: Anti-seizure activity against PTZ-induced ICR mouse seizure model assessed as increase in average latency to stage 6 at 50 mg/kg, IG incubated for 1 hrs followed by PTZ stimulation and measured <30 mins; assay type: functional, organism-based; details: time < 1.5 hrs
[19] = test system: Mus musculus; assay: Anti-seizure activity against ICR mouse […] assessed as decrease in tonic clonic seizure duration at 50 mg/kg, IG incubated for 1 hrs followed by PTZ stimulation; assay type: functional, organism-based
[20] = Tmax in Sprague-Dawley rat at 50 mg/kg, po; assay type: ADME, organism-based; details: in vivo
[21] = test system: Mus musculus; assay: Anti-seizure activity against ICR mouse […] assessed as increase in survival rate at 50 mg/kg, IG incubated for 1 hrs followed by PTZ stimulation; assay type: functional, organism-based
[22] = test system: Mus musculus; assay: Anti-seizure activity against ICR mouse […] assessed as decrease in seizure stage at 50 mg/kg, IG incubated for 1 hrs followed by PTZ stimulation; assay type: functional, organism-based
[23] = Half life in Sprague-Dawley rat at 50 mg/kg, po; assay type: ADME, organism-based; details: in vivo
[24] = test system: Mus musculus; assay: Anti-seizure activity against PTZ-induced ICR mouse seizure model assessed as increase in average latency to stage 2 at 50 mg/kg, IG incubated for 1 hrs followed by PTZ stimulation and measured <30 mins; assay type: functional, organism-based; details: time < 1.5 hrs
[25] = Tmax in Sprague-Dawley rat at 10 mg/kg, iv; assay type: ADME, organism-based; details: in vivo

For `CN(C)/N=N/c1c(C(N)=O)nnn1Cc1ccc(F)cc1F`, the V1/2 [1] was -63.1 mV, the delta(V1/2) [2] was -4.15 mV and the delta(V1/2) [3] was -4.36 mV. The V1/2 [4] was -36.5 mV.
`CN(C)/N=N/c1c(C(N)=O)nnn1Cc1ccccc1Cl` showed a V1/2 [1] of -62.9 mV, a delta(V1/2) [2] of -1.7 mV and a delta(V1/2) [3] of -3.13 mV. It also gave a V1/2 [4] of -42.7 mV.
With `Cc1ccc(Cn2nnc(C(N)=O)c2/N=N/N(C)C)cc1` the V1/2 [1] was -66.2 mV, the delta(V1/2) [2] was -1.05 mV and the delta(V1/2) [3] was -3.93 mV. The V1/2 [4] was -45.4 mV.
With `CN(C)/N=N/c1c(C(N)=O)nnn1Cc1c(F)cccc1F` the Vz/F [5] was 0.93 L/kg, the Cmax [6] was 4496.74 ng/mL and the t1/2 [7] was 11.4 min. The Cmax [8] was 5203.99 ng/mL, the V1/2 [1] was -69.8 mV and the AUClast [9] was 5460 ng·h/mL. It also gave a CLz/F [10] of 54.2 mL/min/kg, a Vd/F [11] of 13.6 L/kg and a delta(V1/2) [2] of -1.81 mV. The Activity [12] was “Active”, the Activity [13] was “Active” and the CLz/F [14] was 169 mL/min/kg. For the same compound, the AUClast [15] was 3190 ng·h/mL, the bioavailability [16] was 34.3% and the Activity [17] was “Active”. For the same compound, the Activity [18] was “Active”, the Activity [19] was “Active” and the Tmax [20] was 10.2 min. For the same compound, the Activity [21] was “Active”, the Activity [22] was “Active” and the delta(V1/2) [3] was -10.1 mV. The t1/2 [23] was 63 min, the Activity [24] was “Active” and the Tmax [25] was 10.2 min. The V1/2 [4] was -46.1 mV.
Compound `CN(C)/N=N/c1c(C(N)=O)nnn1CCc1c(F)cccc1F` has a V1/2 [1] of -61.5 mV, a delta(V1/2) [2] of -2.65 mV and a delta(V1/2) [3] of -0.74 mV. It also gave a V1/2 [4] of -31.9 mV.
For `CNC(=O)c1nnn(Cc2c(F)cccc2F)c1/N=N/N(C)C`, the V1/2 [1] was -69.6 mV, the delta(V1/2) [2] was -4.56 mV and the delta(V1/2) [3] was -6.54 mV. For the same compound, the V1/2 [4] was -39.5 mV.
`CN(C)/N=N/c1c(C(=O)Nc2ccccc2)nnn1Cc1c(F)cccc1F` showed a V1/2 [1] of -73 mV, a delta(V1/2) [2] of -1.64 mV and a delta(V1/2) [3] of -5.55 mV. For the same compound, the V1/2 [4] was -36.5 mV.
Compound `CN(C)/N=N/c1c(C(=O)NC2CC2)nnn1Cc1c(F)cccc1F` has a V1/2 [1] of -64.2 mV, a delta(V1/2) [2] of -2.85 mV and a delta(V1/2) [3] of -3.87 mV. It also gave a V1/2 [4] of -32.4 mV.
Compound `NC(=O)c1cn(Cc2c(F)cccc2F)nn1` has a V1/2 [1] of -66.7 mV, a delta(V1/2) [2] of -7.39 mV and a delta(V1/2) [3] of -7.01 mV. It also gave a V1/2 [4] of -41.3 mV.
With `CN(C)/N=N/c1c(C(N)=O)nnn1Cc1ccccc1F` the V1/2 [1] was -66.6 mV, the delta(V1/2) [2] was -3.11 mV and the delta(V1/2) [3] was -4.73 mV. It also gave a V1/2 [4] of -30.9 mV.
In the case of `CN(C)/N=N/c1c(C(N)=O)nnn1Cc1ccccc1`, the V1/2 [1] is reported as -64.2 mV, the delta(V1/2) [2] is reported as -1.5 mV and the delta(V1/2) [3] is reported as -3.79 mV. For the same compound, the V1/2 [4] was -43.2 mV.
In the case of `COC(=O)CCCNC(=O)c1nnn(Cc2c(F)cccc2F)c1/N=N/N(C)C`, the V1/2 [1] is reported as -71.3 mV, the delta(V1/2) [2] is reported as -1.56 mV and the delta(V1/2) [3] is reported as -4.72 mV. It also gave a V1/2 [4] of -35.7 mV.
With `CN(C)/N=N/c1c(C(N)=O)nnn1Cc1ccc(F)cc1` the V1/2 [1] was -62 mV, the delta(V1/2) [2] was -0.99 mV and the delta(V1/2) [3] was -4 mV. For the same compound, the V1/2 [4] was -39 mV.
With `CN(C)/N=N/c1c(C(=O)NCc2ccccc2)nnn1Cc1c(F)cccc1F` the V1/2 [1] was -78.8 mV, the delta(V1/2) [2] was 1.95 mV and the Activity [12] was “Active”. For the same compound, the Activity [17] was “Active”, the Activity [18] was “Active” and the Activity [22] was “inactive”. For the same compound, the delta(V1/2) [3] was -11.3 mV, the Activity [24] was “Active” and the V1/2 [4] was -36.2 mV.
`CN(C)/N=N/c1c(C(N)=O)nnn1-c1c(F)cccc1F` showed a V1/2 [1] of -64.3 mV, a delta(V1/2) [2] of -1.09 mV and a delta(V1/2) [3] of -4.24 mV. The V1/2 [4] was -35.6 mV.
